# Values joined by “and” are separate entries in the source; they are usually repeats but may differ in a detail not shown here. Equal entries are not always repeated.
# Biological target: PDE10A enzyme (Homo sapiens (Human), UniProt Q9Y233)
# Test: PDE10A inhibition assay
# Format: biochemical
# Settings: tritium labeled cAMP 5 nM
# Protocol: Active PDE10A enzyme is prepared in a number of ways for use in PDE assays (Loughney, K. et al. Gene 1999, 234, 109-117; Fujishige, K. et al. Eur J Biochem. 1999, 266, 1118-1127 and Soderling, S. et al. Proc. Natl. Acad. Sci. 1999, 96, 7071-7076). PDE10A can be expressed as full-length proteins or as truncated proteins, as long as they express the catalytic domain. PDE10A can be prepared in different cell types, for example insect cells or E. coli. An example of a method to obtain catalytically active PDE10A is as follows: The catalytic domain of human PDE10A (amino acids 440-779 from the sequence with accession number NP 006652) is amplified from total human brain total RNA by standard RT-PCR and is cloned into the BamH1 and Xho1 sites of the pET28a vector (Novagen). Expression in coli is performed according to standard protocols. Briefly, the expression plasmids are transformed into the BL21(DE3) E. coli strain, and 50 mL cultures inoculated with the cells allowed to grow to an OD600 of 0.4-0.6 before protein expression is induced with 0.5 mM IPTG. Following induction, the cells are incubated overnight at room temperature, after which the cells are collected by centrifugation. Cells expressing PDE10A are resuspended in 12 mL (50 mM TRIS-HCl-pH8.0, 1 mM MgCl2 and protease inhibitors). The cells are lysed by sonication, and after all cells are lysed, TritonX100 is added according to Novagen protocols.
# A PDE10A assay may for example, be performed as follows: The assay is performed in 60 uL samples containing a fixed amount of the relevant PDE enzyme (sufficient to convert 20-25% of the cyclic nucleotide substrate), a buffer (50 mM HEPES7.6; 10 mM MgCl2; 0.02% Tween20), 0.1 mg/ml BSA, 225 pCi of ^3H-labelled cyclic nucleotide substrate, tritium labeled cAMP to a final concentration of 5 nM and varying amounts of inhibitors. Reactions are initiated by addition of the cyclic nucleotide substrate, and reactions are allowed to proceed for one hr at room temperature before being terminated through mixing with 15 uL 8 mg/mL yttrium silicate SPA beads (Amersham). The beads are allowed to settle for one hr in the dark before the plates are counted in a Wallac 1450 Microbeta counter. The measured signal can be converted to activity relative to an uninhibited control (100%) and IC50 values can be calculated using the XIfit extension to EXCEL.
# PDE10A enzyme, sequence (Q9Y233 716-1055): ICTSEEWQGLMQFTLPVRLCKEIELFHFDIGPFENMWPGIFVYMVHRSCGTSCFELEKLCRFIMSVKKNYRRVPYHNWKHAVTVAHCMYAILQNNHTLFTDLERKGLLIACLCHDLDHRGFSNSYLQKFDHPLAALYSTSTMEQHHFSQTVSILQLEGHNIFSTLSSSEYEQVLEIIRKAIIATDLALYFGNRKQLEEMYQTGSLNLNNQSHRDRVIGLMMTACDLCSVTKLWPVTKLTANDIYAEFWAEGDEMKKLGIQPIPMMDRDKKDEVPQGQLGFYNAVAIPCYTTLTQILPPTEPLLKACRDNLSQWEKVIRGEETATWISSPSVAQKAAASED
row,IC50,Compound
1,24 nM,"Cc1ccc(C)n2nc(CCc3ccc4ccccc4n3)nc12 [2-[2-(5,8-Dimethyl-[1,2,4]triazolo[1,5-a]pyridin-2-yl)-ethyl]-quinoline]"
2,500 nM,"Cc1ncc(C)n2nc(CCc3cc(O)c4ccc(F)cc4n3)nc12 [2-[2-(5,8-Dimethyl-[1,2,4]triazolo[1,5-a]pyrazin-2-yl)-ethyl]-7-fluoro-quinolin-4-ol]"
3,240 nM,"Cc1cc(C)n2cc(/C=C\c3ccc4ccccc4n3)nc2n1 [2-[(Z)-2-(5,7-Dimethyl-imidazo[1,2-a]pyrimidin-2-yl)-vinyl]-quinoline]"
4,72 nM,"Cc1cc(C)n2nc(CCc3ccc4ccccc4n3)nc2n1 [2-[2-(5,7-Dimethyl-[1,2,4]triazolo[1,5-a]pyrimidin-2-yl)-ethyl]-quinoline]"
5,12 nM,"COc1ccc(C)n2nc(CCc3ccc4ccccc4n3)nc12 [2-[2-(8-Methoxy-5-methyl-[1,2,4]triazolo[1,5-a]pyridin-2-yl)-ethyl]-quinoline]"
6,360 nM,"Cc1ncc(C)n2nc(CCc3ccc4c(F)c(F)cc(F)c4n3)nc12 [2-[2-(5,8-Dimethyl-[1,2,4]triazolo[1,5-a]pyrazin-2-yl)-ethyl]-5,6,8-trifluoro-quinoline]"
7,170 nM,"COc1ccc2nc(CCc3nc4nc(C)cc(C)n4n3)ccc2c1 [2-[2-(5,7-Dimethyl-[1,2,4]triazolo[1,5-a]pyrimidin-2-yl)-ethyl]-6-methoxy-quinoline]"
8,190 nM,"COc1cc(CCc2nc3cccc(C)n3n2)nc2ccccc12 [4-Methoxy-2-[2-(5-methyl-[1,2,4]triazolo[1,5-a]pyridin-2-yl)-ethyl]-quinoline]"
9,490 nM,"Cc1ncc(C)n2nc(/C=C/c3ccc4cc(C(F)(F)F)ccc4n3)nc12 [2-[(E)-2-(5,8-Dimethyl-[1,2,4]triazolo[1,5-a]pyrazin-2-yl)-vinyl]-6-trifluoromethyl-quinoline]"
10,42 nM,"Cc1ncc(C)n2nc(CCc3ccc4cc(Cl)ccc4n3)nc12 [6-Chloro-2-[2-(5,8-dimethyl-[1,2,4]triazolo[1,5-a]pyrazin-2-yl)-ethyl]-quinoline]"
11,150 nM,"COc1ccc(C)n2nc(CCc3ccc4cccc(F)c4n3)nc12 [8-Fluoro-2-[2-(8-methoxy-5-methyl-[1,2,4]triazolo[1,5-a]pyridin-2-yl)-ethyl]-quinoline]"
12,15 nM,"Cc1ncc(C)n2nc(CCc3ccc4ccc(F)cc4n3)nc12 [2-[2-(5,8-Dimethyl-[1,2,4]triazolo[1,5-a]pyrazin-2-yl)-ethyl]-7-fluoro-quinoline]"
13,59 nM,"Cc1ncc(C)n2nc(CCc3ccc4cc(C#N)c(Cl)cc4n3)nc12 [7-Chloro-2-[2-(5,8-dimethyl-[1,2,4]triazolo[1,5-a]pyrazin-2-yl)-ethyl]-quinoline-6-carbonitrile]"
14,240 nM,"Cc1ncc(C)n2nc(CCc3ccc4cc(Cl)cc(F)c4n3)nc12 [6-Chloro-2-[2-(5,8-dimethyl-[1,2,4]triazolo[1,5-a]pyrazin-2-yl)-ethyl]-8-fluoro-quinoline]"
15,24 nM and 26 nM,"Cc1ncc(C)n2nc(CCc3ccc4cc(F)ccc4n3)nc12 [2-[2-(5,8-Dimethyl-[1,2,4]triazolo[1,5-a]pyrazin-2-yl)-ethyl]-6-fluoro-quinoline]"
16,270 nM,"COc1ccc(C)n2nc(/C=C/c3cc(Cl)c4cccc(F)c4n3)nc12 [4-Chloro-8-fluoro-2-[(E)-2-(8-methoxy-5-methyl-[1,2,4]triazolo[1,5-a]pyridin-2-yl)-vinyl]-quinoline]"

# Tested on: rats
# Test: not given
# Settings: papaverine alone; cited from earlier work
row,Compound,catalepsy on its own
1,"COc1ccc(Cc2nccc3cc(OC)c(OC)cc23)cc1OC [Papaverine, papaverine]",did not cause catalepsy on its own

# Same assay, conditions: together with haloperidol; cited from earlier work
row,Compound,cataleptic effect of the D2 receptor antagonist haloperidol
1,"COc1ccc(Cc2nccc3cc(OC)c(OC)cc23)cc1OC [Papaverine, papaverine]",potentiated the cataleptic effect

# Tested on: rats
# Test: not given
# Settings: cited from earlier work
row,Compound,hyperactivity induced by PCP
1,"COc1ccc(Cc2nccc3cc(OC)c(OC)cc23)cc1OC [Papaverine, papaverine]",reduced hyperactivity

# Tested on: rats
# Test: not given
# Settings: cited from earlier work
# Remark: another data set of the same source
row,Compound,reduction of amphetamine induced hyperactivity
1,"COc1ccc(Cc2nccc3cc(OC)c(OC)cc23)cc1OC [Papaverine, papaverine]",insignificant

# — patent US9216986B1, “Quinoline derivatives as PDE10A enzyme inhibitors” (H. Lundbeck A/S, priority 2011, dated 2015)
